Data set [1] can be described thus: in vitro. The format is in vitro ADME, human. Here is the method: The skin permeation of OXB was evaluated using 6% OXB formulations with and without RsC1 in a Franz diffusion cell (FIG. 9 and Table 1).
The amounts of OXB remaining on the skin surface, inside the skin, and on the surface of the donor chamber cap were also determined at the end of the skin permeation experiments. The average total recovery of OXB from the permeation study was approximately 75%.
In addition, the amount of RsC1 that permeated through the skin to the receptor chamber was determined using an HPLC assay.
Rinse 1: rinsing once using receptor chamber solution (PBS with 0.02% sodium azide and 3% cyclodextrin); Rinse 2: rinsing four times using a methanol/water (85:15) solution. The values for the rinses, cut-up skin, and donor chamber cap were adjusted to correct for the extraction method and RsC1 interference during the OXB assay.
Skin permeation studies of OXB were performed using split-thickness human skin in a Franz diffusion cell with a 0.7 cm2 diffusion area. The skin samples were labeled with the code of the skin donor (n=3, CC, RT, or SL) and the same group of skin donors was used in each experiment. To prepare the skin samples, the cadaver skin was cut into 1.5 cm×1.5 cm pieces, thawed in Petri dishes with PBS at room temperature for 2 h, and then patted dry with Kimwipes before being mounted onto the diffusion cell with the stratum corneum side facing up. PBS containing 0.02% sodium azide as a preservative and 3% cyclodextrin as a solubilizing agent for OXB was used as the solution in the receptor chamber. The TEWL of the skin sample was measured to ensure skin integrity before the permeation study. For TEWL measurements, a vapometer was placed on top of the donor chamber of the diffusion cell and the measurement was repeated until a constant TEWL value was obtained (2-3 measurements, 15 min apart). Only skin samples with TEWL values of <10 g/m2/h were used for permeation experiments.
After the TEWL measurement, the skin in the diffusion cell was allowed to equilibrate for 1 h. During this equilibration period, the skin surface was maintained at 32±1° C. The receptor medium was stirred with a magnetic stirrer at 600 rpm to ensure uniform mixing. The permeation study was initiated by applying 2 mg/cm2 of the test formulation on the skin surface in the diffusion cell. The dose of 2 mg/cm2 was selected based on FDA guidelines. The test formulations were 6% OXB and 6% OXB+RsC1 (1:1) in ethanol. At 0, 3, 6, 10, 12, and 24 h after dosing, 0.5 mL samples were withdrawn from the receptor chamber and immediately replaced with the same volume of fresh PBS solution to maintain a constant receptor solution volume. At the end of the experiment, the residual formulation in the donor compartment was recovered by rinsing once with the receptor chamber solution (PBS with 0.02% sodium azide and 3% cyclodextrin) and four times with methanol/water (85:15) solution (each time with 0.5 ml for 30 s). The treated areas were then dried with Kimwipes. The donor chamber cap and gasket were soaked in 5 ml of methanol/water (85:15) solution for 30 min. The skin was then removed from the diffusion cell, cut into small pieces, and extracted with 4×1 ml of methanol/water (85:15) solution. Blank skin samples were used as the control. The samples collected from the receptor chamber, the rinses, and skin extraction were centrifuged (3000×g for 15 min), and OXB content in the supernatant was determined using HPLC. Statistical analysis was performed using the Student's unpaired t-test and p<0.05 was considered significant.
The HPLC assay was conducted using a Shimadzu HPLC system (Shimadzu Scientific Instruments, Inc., Addison, IL) with an LC-20 AT pump, an SPD-20A UV-Vis detector, a SL-20A autoinjector, and a Microsorb-MV100-5 C18 column (150×4.6 mm, Agilent Technologies, Santa Clara, CA). The mobile phase was methanol and water at a ratio of 85:15. The flow rate was 0.8 ml/min. […]

The conditions of data set [2]: background, cited from earlier work.

On to `CC1c2cc(c(O)cc2O)C(C)c2cc(c(O)cc2O)C(C)c2cc(c(O)cc2O)C(C)c2cc1c(O)cc2O` (stereo not drawn) [RsC1, C-methylresorcin[4]arene], for which, in data set [1], the “Amount of RsC1 permeated through the skin to the receptor chamber” value is on record as “negligible”.
Turning to `COc1ccc(C(=O)c2ccccc2)c(O)c1` [OXB, Oxybenzone], in data set [1] (human, 24 h, 6 %), the “Total OXB recovered, Average (%)” value came out at 70.3%. In addition, the recovery at 24 h, 6 % in data set [1] (human, Average total recovery of OXB from the permeation study) was around 75%; in data set [1] (human, Recovery of OXB, Donor chamber cap, Average (%)), 0.6%; in data set [1] (human, Recovery of OXB, Rinse 1, Average (%)), 24%; in data set [1] (human, Recovery of OXB, Rinse 2, Average (%)), 22.9%; in data set [1] (human, Recovery of OXB, Skin cut-up, Average (%)) it was 2.7%. Further, in data set [2] (Franz diffusion cell), the “Fraction of OXB that can penetrate human skin” value is given as 10%. Besides, in data set [2], the “Fraction of OXB entering the bloodstream and eliminated through urine” value is 0.4%.

Source of the values: patent US20260076885A1, “Complexation of Oxybenzone with C-methylresorcin[4]arene” (University of Cincinnati, priority 2021, published 2026).
